{"source": "patent US12691124B2", "about": "“Methods of controlling and improving brain health” (ICAHN SCHOOL OF MEDICINE AT MOUNT SINAI, priority 2019, dated 2026)", "key": {"[1]": {"target": "T1, BRD2 (Mus musculus, UniProt Q7JJ13)", "T1 construct": "Primary cortical neurons express BRD2/3/4, with BRD2 and BRD4 being the most abundant; endogenous in cells; host or cells: primary cortical neuronal cultures (mouse)", "assay": "ChIP sequencing of BRD2 chromatin occupancy in neurons", "assay_type": "cell-based", "experimental": "Chromatin Immunoprecipitation with Sequencing. Primary cortical neuronal cultures were washed once with PBS then fixed for 10 minutes with a 1% formaldehyde solution in PBS with protease inhibitors (Sigma #P8340) at room temperature. Fixation was quenched adding glycine to a final concentration of 0.125M (5 minutes, room temperature). 10e6 fixed cells were resuspended in 1 ml of lysis buffer (50 mM Hepes KOH, pH7.5, 140 mM NaCl, 1 mM EDTA, 10% glycerol, 0.5% NP-40, 0.25% Triton X-100) and 10 ul of protease inhibitor cocktail (PIC). Samples were rotated for 10 minutes at 4 degrees then spun at 1350 g at 4 C for 10 minutes. Pellets were resuspended in 1 ml of lysis buffer 2 (10 mM Tris-HCl pH8.0, 200 mM NaCl, 1 mM EDTA, 0.5 mM EGTA) and 10 ul PIC.). 5e6 nuclei were sonicated in lysis buffer 3 (10 mM Tris-HCl pH8.0, 100 mM NaCl, 1 mM EDTA, 0.5 mM EGTA, 0.1% Na-Deoxicholate, 0.5% N-Lauroylsarcosine) at 4 degrees for 5 cycles of 30 seconds ON/30 seconds OFF using the Diagenode bioruptor. After, 30 ul of 10% Triton-X100 was added to each sample and then spun for 15 minutes at 20,000 g at 4 degrees. Sonication efficiency was checked by running the samples on a 2% agarose gel to confirm enrichment for fragments from 200-500 bps.\nStreptavidin M-280 dynabeads were blocked with 0.5% BSA solution and coupled to 7 ug of antibody (Brd4 #Ab84778, Brd2 Bethyl #A302-583A, Pol2 Ser5 #Ab5408) for at least 8 hours at 4 degrees, rotating. Antibody-coupled beads were then added to sonicated chromatin (20e6 cells for Brd2/Brd4, 10e6 for Pol2) and incubated overnight at 4 degrees. After washing the IPs eight times with wash buffer (50 mM Hepes-KOH pH7.6, 100 mM LiCl, 1 mM EDTA, 1% NP-40, 0.7% Na-Deoxycholate) and once with TE buffer (10 mM Tris-HCl, 1 mM EDTA, 50 mM NaCl), Chromatin was eluted from magnetic beads in 200 ul elution buffer ([…] Tris-HCl pH8.0, 10 mM EDTA, 1% SDS) for 45 minutes at 65 degrees. Samples were de-crosslinked overnight at 65 degrees and proteins and RNA were removed by incubating with RNAse and proteinase k. Samples were purified using the Qiagen PCR purification kit according to the manufacturers protocol.\nSamples were end-repaired using the End-IT DNA End-Repair Kit (#ER0720). After 45 minutes incubation, samples were purified using the Qiagen PCR Clean up kit as described above. Samples were adenylated using a reaction mix (200 uM dATP, 1× Klenow buffer NEB2, Klenow Fragment (3′ to 5′ exo-), NEB M0212L) and incubating at 37 degrees for 30 minutes. […] Raw sequencing reads were then aligned to the mouse mm9 genome using the default settings of Bowtie (v2.2.0)87. Only uniquely mapped reads were retained, and the alignments were subsequently filtered using the SAMtools package (v0.1.19)88 to remove duplicate reads. […]"}, "[2]": {"system": "primary cortical neurons", "assay": "Polar metabolite mass spectrometry in primary cortical neurons", "assay_type": "cell-based, mouse", "experimental": "Mass Spectrometry. Cell culture plates (2e6 cells per well n=7-8 per group) were washed with 75 mM Ammonium bicarbonate, pH 7.4, warmed to 37 degrees. Plates were quenched on liquid nitrogen for 10 seconds and then placed on dry ice. 1 ml of 70% Ethanol in MS-grade water was warmed to 75 degrees and added to each well. Plates were incubated in a 75 degree water bath for 3 minutes, shaking gently every minute. After 3 minutes, plates were placed on dry ice and once cooled, supernatants were lyophilized using the speed vacuum and stored at −80 degrees. Samples were shipped on dry ice to Cellzome who processed the samples for mass spectrometry and performed the initial analysis annotating metabolites. A semi-quantitative approach was used which determines the metabolite levels relative to a control rather than absolute concentrations. All detected ions were used for statistical analysis regardless of how many samples they were detected. This allows for the identification of low-abundant metabolites that may be present in only a subset of samples.\nIf IBET858 is indeed decreasing metabolism as indicated, comprehensive metabolic changes after BET inhibition should be observed. Therefore, an unbiased analysis of polar metabolites via mass spectrometry was employed (FIGS. 12A-12C). Accordingly, the levels of 100-150 unique metabolites are changed by chronic BET inhibition in primary cortical neurons."}}}
{"smiles": "CC(=O)N1c2ccc(-c3ccc(CN4CCCCC4)cc3)cc2[C@H](Nc2ccccc2)CC1C", "note": "(stereo in doubt) [IBET858]", "values": [{"measurement": "genes that lose BRD2 at the transcriptional start site", "setting": "[1]; 6 h IBET858", "value": 1497, "unit": "genes"}, {"measurement": "genes with gain of BRD2 at the transcriptional start site", "setting": "[1]; 6 h IBET858", "value": 828, "unit": "genes"}, {"measurement": "loci with reduced occupancy of BRD2", "setting": "[1]; DIV7, 6 h IBET858", "value": 2099, "unit": "loci"}, {"measurement": "loci with increased occupancy of BRD2", "setting": "[1]; day 7, 6 h IBET858", "value": 1680, "unit": "loci"}, {"measurement": "enrichment of decreased metabolites, Arginine/Proline metabolism (OR)", "setting": "[2]; 1 week IBET858", "value": 26.8}, {"measurement": "enrichment of decreased metabolites, Glutamate metabolism (OR)", "setting": "[2]; 1 week IBET858", "value": 24.4}, {"measurement": "enrichment of decreased metabolites, Tyrosine metabolism (OR)", "setting": "[2]; 1 week IBET858", "value": 30.33}, {"measurement": "enrichment of decreased metabolites, glycolysis (OR)", "setting": "[2]; 1 week IBET858", "value": 48.8}, {"measurement": "enrichment of decreased metabolites, pentose phosphate pathway (OR)", "setting": "[2]; 1 week IBET858", "value": 42}, {"measurement": "enrichment of increased metabolites, aspartate metabolism pathway (OR)", "setting": "[2]; 1 week IBET858", "value": 23.5}, {"measurement": "amino acids significantly decreased", "setting": "[2]; 1 week IBET858, 13/20", "value": 65, "unit": "%"}, {"measurement": "unique metabolites changed", "setting": "[2]; chronic BET inhibition (1 week)", "value": "100-150 metabolites"}]}
